biological target: T1, Solute carrier family 15 member 1 (Rattus norvegicus) (UniProt P51574); experiment: TP_TRANSPORTER: uptake in Xenopus laevis oocytes; format: functional, cell-based; conditions: Oocyte
T1 sequence (whole entry): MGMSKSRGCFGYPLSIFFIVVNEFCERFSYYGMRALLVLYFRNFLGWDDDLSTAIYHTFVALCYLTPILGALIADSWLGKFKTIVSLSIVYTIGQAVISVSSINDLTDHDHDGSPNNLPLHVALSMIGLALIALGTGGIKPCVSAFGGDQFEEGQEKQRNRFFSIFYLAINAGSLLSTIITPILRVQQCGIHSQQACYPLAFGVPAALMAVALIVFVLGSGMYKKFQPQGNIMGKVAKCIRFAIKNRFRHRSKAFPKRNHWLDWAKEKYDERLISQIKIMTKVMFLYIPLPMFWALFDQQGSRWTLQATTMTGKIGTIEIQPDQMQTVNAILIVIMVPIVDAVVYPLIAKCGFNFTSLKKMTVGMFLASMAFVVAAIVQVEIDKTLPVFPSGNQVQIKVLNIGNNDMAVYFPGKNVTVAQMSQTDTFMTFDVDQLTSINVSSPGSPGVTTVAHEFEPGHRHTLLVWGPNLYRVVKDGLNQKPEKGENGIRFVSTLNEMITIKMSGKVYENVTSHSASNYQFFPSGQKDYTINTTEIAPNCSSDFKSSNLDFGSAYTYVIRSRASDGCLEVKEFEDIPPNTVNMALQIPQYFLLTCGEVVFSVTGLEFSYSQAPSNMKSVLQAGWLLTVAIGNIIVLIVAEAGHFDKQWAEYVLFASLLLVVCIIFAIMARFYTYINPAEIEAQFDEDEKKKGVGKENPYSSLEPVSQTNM

SMILES | Activity
CC1=C(C(=O)O)N2C(=O)[C@@H](NC(=O)[C@H](N)c3ccccc3)[C@H]2SC1 | substrate [+]
CC1=C(C(=O)O)N2C(=O)[C@@H](NC(=O)[C@H](N)c3ccc(O)cc3)[C@H]2SC1 | substrate [+]
C=CC1=C(C(=O)O)N2C(=O)[C@@H](NC(=O)/C(=N\OCC(=O)O)c3csc(N)n3)[C@H]2SC1 | substrate [+]

— ChEMBL document CHEMBL2074093, “The predominant contribution of oligopeptide transporter PepT1 to intestinal absorption of beta-lactam antibiotics in the rat small intestine” (J Pharm Pharmacol, 1997)
